Results on two compounds are retold here after patent US20120108641A1, “ANTITUMOR COMBINATION INCLUDING AVE8062 AND SORAFENIB” (SANOFI, priority 2009, published 2012).

“And” between values parts separate entries of the source, which are not always exact repeats. Equal values may be shown once. Read-outs that look alike come from different tables or passages of the source.

Series [1] concerns NCI-H460 human non-small cell lung tumour. The experiment in a line: Study 3: sorafenib administered 24 h after AVE8062, antitumour activity. The series is classed as in vivo, female SCID mice. An excerpt:
(§1) A product is considered to be active if the log10 cell kill is greater than or equal to 0.7.
(§2) The activity in this case is acknowledged for a net log cell kill that is positive (>0). A cytostatic activity corresponds to a net log cell kill of 0, that is to say that the treatment time is equal to the duration of the antitumour effect.
(§3) In the case of an early tumour treatment, the implanted animals are distributed randomly in various groups which are, or are not (controls), intended to receive the treatment(s). […] The animals are observed and weighed every day. A dose which induces a weight loss of 20% or more at the lowest point (average of the group) or a mortality of 10% or more is considered to be toxic. The tumour activity is evaluated at the highest non-toxic dose, or at the highest dose tested, within the context of a non-cytotoxic agent.
(§4) The tumours are measured 2 or 3 times a week until the tumour reaches approximately 2 g or until the animal dies, if this occurs before the tumour reaches 2 g. The animals are autopsied when they are sacrificed.
(§5) The antitumor activity is determined in accordance with various recorded parameters, such as the dose (mg/kg), the method of administration, the administration time, the toxicity and the log10 cell kill, which depends on the tumour growth delay and also on the tumour doubling time.
(§6) Within the context of the following studies, the AVE8062, in hydrochloride form, is formulated in water with 0.9% NaCl.
Study 3: Sorafenib Administered 24 h after AVE8062 in the Combination (Table III)
The AVE8062 was administered intravenously on days 9 and 14 post implantation of the NCI-H460 pulmonary tumour in female SCID mice. The sorafenib was administered orally from day 9 to day 20. When the 2 agents were administered in combination, the same schedules were used as for the agents alone, but the administrations of sorafenib were started 24 hours after that of AVE8062.

How the values of series [2] were obtained:
as §3, §6
(§7) The AVE8062 was administered intravenously on days 10 and 14 post tumour implantation. The sorafenib was administered orally from day 10 to day 14. The two agents were administered in combination, according to the same schedules as those used for the agents alone, but the administration of sorafenib having been staggered one hour after the administration of the AVE8062.

Series [3] in a line: Study 3: toxicity, highest non-toxic dose. The series is classed as in vivo, female SCID mice. To be noted: Study 3, AVE8062 alone i.v. days 9, 14. Here is the method:
The animals are observed and weighed every day.
The AVE8062 was administered intravenously on days 9 and 14 post implantation of the NCI-H460 pulmonary tumour in female SCID mice.

For series [4], the system named is NCI-H460 human non-small cell lung tumour. The series can be described thus: Study 1: sorafenib administered simultaneously with AVE8062, antitumour activity. The series is classed as in vivo, female SCID mice. The settings on record: AVE8062 22.3 mg/kg per injection i.v. days 9, 13.
Text: as §1, §2, §3, §4, §5, §6
Study 1: Sorafenib Administered Simultaneously with AVE8062 (Table I)
The AVE8062 was administered intravenously on days 9 and 13 post tumour implantation. The sorafenib was administered orally from day 9 to day 24. When the two agents were administered in combination, the same schedules were used as for the agents alone, the combination of the two agents having been carried out simultaneously on days 9 and 13.

Series [5] has the same test system. The experiment in a line: Study 2: sorafenib administered 1 h after AVE8062, antitumour activity. The series is classed as in vivo, female SCID mice.
Text: as §1, §3, §4, §5, §6
Study 2: Sorafenib Administered 1 h after AVE8062 in the Combination (Table II)
as §7

Setting [6] is: AVE8062 22.3 mg/kg per injection i.v. days 9, 14.
Setting [7] is: AVE8062 22.3 mg/kg/admin i.v. days 10, 14.
Where [8] appears, read: sorafenib 100.0 mg/kg per injection p.o. days 9-20.
The mark [9] stands for this setting: sorafenib 100.0 mg/kg/admin p.o. days 10-14.

As to `COc1ccc(/C=C\c2cc(OC)c(OC)c(OC)c2)cc1NC(=O)[C@@H](N)CO` [AVE8062, (Z)—N-[2-methoxy-5-[2-(3,4,5-trimethoxyphenyl)vinyl]phenyl]-L-serinamide], in series [1] (setting [6]), the CR is recorded as 0/6, the Observations result is listed as “Active”, the PR was 0/6 and the “gross log cell kill” value was 1.7. For the same compound, in series [1] (setting [6]), the “net log cell kill” value was 0.3. In addition, the “Mortality (day of death)” value in series [2] (setting [7]) is reported as 0/5. In addition, in series [2] (AVE8062 22.3 mg/kg/admin i.v. days 10, 14, lowest point day 21), the “% BWC (day of lowest point)” value is reported as −3.2 (21) %. For the same compound, the “highest non-toxic dose (HNTD)” value in series [2] (Study 2, AVE8062 alone i.v. days 10, 14) is recorded as 22.3 mg/kg per injection. For the same compound, in series [3], the “highest non-toxic dose (HNTD)” value is 36 mg/kg per injection. Also, in series [4], the CR was 0/6, the Observations result is “Inactive”, the PR is on record as 0/6 and the log cell kill is 0.6. For the same compound, the “net log cell kill” value in series [4] is −0.1. In series [5] (setting [7]), the Observations result is on record as “HNTD - active”, the Regressions complete is listed as 0/5, the “T − C” value was 5.8 days and the log cell kill was 1.1. The Regressions partial entry in series [5] (AVE8062 22.3 mg/kg/admin i.v. days 10, 14, 22.3 mg/kg) was “without inducing tumour regression and 0/5”.
On to `CNC(=O)c1cc(Oc2ccc(NC(=O)Nc3ccc(Cl)c(C(F)(F)F)c3)cc2)ccn1` [Sorafenib, 4-[4-[[4-chloro-3-(trifluoromethyl)phenyl]carbamoylamino]phenoxy]-N-methylpyridine-2-carboxamide], for which, in series [1] (setting [8]), the CR was 0/6, the Observations result is “HDT - no cytostasis”, the PR is 0/6 and the “gross log cell kill” value is reported as 2.4. The “net log cell kill” value in series [1] (setting [8]) is given as −0.4. Further, the “Mortality (day of death)” value in series [2] (setting [9]) is recorded as 0/6. In series [5] (setting [9]), the Observations entry was “HDT - Active”, the Regressions complete was 0/6, the Regressions partial is reported as 0/6 and the “T − C” value was 6.1 days. For the same compound, the log cell kill in series [5] (setting [9]) worked out at 1.1.
